EP4722207A1, “OXOISOINDOLINYL-SUBSTITUTED TETRAHYDROPYRIMIDINEDIONE DERIVATIVE AND USE THEREOF” (Gluetacs Therapeutics (Shanghai) Co., Ltd., priority 2023, dated 2024)

Key:
Assay type in all cases: cell-based
WEE1 = biological target: T1, WEE1 (Homo sapiens, UniProt P30291+Q96SW2); assay: Western-blot assay, substrate protein degradation in hPBMCs: WEE1; settings: for substrate protein remaining % WEE1: 24 hours of compound treatment, 50 nM and 500 nM
T1 construct: effects of the compounds of the present disclosure on the expression of target proteins in cells; endogenous in cells; host or cells: human PBMCs (hPBMCs)
T1 sequence (P30291 whole entry): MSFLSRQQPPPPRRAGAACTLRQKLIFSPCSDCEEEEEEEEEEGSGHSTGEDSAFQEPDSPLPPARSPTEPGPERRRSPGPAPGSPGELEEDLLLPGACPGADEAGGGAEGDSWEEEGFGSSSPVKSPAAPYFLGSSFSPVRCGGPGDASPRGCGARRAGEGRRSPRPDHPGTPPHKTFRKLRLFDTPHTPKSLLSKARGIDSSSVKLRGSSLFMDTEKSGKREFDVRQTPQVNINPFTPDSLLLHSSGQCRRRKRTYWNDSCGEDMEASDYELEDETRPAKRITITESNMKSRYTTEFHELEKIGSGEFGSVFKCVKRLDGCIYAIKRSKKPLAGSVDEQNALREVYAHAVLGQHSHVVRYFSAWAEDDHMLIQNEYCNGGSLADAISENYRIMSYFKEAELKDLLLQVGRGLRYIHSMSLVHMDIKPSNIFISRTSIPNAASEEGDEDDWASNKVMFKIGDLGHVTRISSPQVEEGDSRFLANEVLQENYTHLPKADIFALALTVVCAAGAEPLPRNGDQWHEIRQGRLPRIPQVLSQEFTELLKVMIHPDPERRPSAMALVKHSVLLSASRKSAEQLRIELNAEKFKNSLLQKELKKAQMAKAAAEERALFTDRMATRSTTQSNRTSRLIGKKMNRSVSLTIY
T1 sequence (Q96SW2 whole entry): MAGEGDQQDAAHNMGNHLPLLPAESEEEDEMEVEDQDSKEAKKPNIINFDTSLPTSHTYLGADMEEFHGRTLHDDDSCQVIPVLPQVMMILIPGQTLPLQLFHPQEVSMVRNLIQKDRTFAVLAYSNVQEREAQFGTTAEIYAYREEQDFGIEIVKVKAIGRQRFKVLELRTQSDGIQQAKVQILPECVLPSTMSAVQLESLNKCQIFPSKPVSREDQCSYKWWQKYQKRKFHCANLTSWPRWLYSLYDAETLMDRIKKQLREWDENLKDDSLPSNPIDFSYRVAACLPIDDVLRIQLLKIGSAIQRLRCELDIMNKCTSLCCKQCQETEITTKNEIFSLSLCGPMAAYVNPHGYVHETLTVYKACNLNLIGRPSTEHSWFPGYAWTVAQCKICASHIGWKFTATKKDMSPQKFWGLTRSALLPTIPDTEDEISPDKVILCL
T1 sequence (Q16531 whole entry partner): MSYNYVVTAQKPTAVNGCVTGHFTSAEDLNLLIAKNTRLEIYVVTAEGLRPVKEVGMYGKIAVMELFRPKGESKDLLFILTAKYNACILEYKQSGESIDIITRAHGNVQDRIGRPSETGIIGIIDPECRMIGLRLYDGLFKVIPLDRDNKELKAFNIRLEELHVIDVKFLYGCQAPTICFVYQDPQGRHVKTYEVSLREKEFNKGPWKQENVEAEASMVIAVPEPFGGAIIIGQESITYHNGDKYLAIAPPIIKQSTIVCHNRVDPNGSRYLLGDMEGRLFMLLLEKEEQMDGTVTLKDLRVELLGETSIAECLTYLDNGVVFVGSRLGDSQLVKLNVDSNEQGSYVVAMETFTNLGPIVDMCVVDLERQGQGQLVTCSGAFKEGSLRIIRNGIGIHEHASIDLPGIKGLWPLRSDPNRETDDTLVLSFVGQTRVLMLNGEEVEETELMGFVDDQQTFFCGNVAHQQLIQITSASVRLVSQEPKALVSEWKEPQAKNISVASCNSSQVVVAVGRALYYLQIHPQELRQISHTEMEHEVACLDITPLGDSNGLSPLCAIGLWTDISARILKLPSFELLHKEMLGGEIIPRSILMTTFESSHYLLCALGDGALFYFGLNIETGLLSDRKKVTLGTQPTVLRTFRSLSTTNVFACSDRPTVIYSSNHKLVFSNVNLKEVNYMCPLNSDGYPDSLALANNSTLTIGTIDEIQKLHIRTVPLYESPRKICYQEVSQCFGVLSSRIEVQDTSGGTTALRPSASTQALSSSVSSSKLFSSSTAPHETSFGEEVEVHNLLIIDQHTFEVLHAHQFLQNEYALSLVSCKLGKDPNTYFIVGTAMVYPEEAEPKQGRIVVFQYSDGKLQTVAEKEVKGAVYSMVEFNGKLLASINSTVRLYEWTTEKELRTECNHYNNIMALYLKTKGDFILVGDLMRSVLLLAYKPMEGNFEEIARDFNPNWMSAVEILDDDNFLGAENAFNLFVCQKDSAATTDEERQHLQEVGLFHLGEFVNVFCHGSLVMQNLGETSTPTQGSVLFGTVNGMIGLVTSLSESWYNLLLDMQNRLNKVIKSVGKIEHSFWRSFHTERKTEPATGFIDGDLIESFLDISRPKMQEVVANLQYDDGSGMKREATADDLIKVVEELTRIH

IKZF1 = biological target: T2, IKZF1 (Homo sapiens, UniProt Q13422+Q96SW2); assay: Western-blot assay, substrate protein degradation in hPBMCs: IKZF1; settings: for substrate protein remaining % IKZF1: 24 hours of compound treatment, 50 nM and 500 nM
T2 construct: effects of the compounds of the present disclosure on the expression of target proteins in cells; endogenous in cells; host or cells: human PBMCs (hPBMCs)
T2 sequence (Q13422 whole entry): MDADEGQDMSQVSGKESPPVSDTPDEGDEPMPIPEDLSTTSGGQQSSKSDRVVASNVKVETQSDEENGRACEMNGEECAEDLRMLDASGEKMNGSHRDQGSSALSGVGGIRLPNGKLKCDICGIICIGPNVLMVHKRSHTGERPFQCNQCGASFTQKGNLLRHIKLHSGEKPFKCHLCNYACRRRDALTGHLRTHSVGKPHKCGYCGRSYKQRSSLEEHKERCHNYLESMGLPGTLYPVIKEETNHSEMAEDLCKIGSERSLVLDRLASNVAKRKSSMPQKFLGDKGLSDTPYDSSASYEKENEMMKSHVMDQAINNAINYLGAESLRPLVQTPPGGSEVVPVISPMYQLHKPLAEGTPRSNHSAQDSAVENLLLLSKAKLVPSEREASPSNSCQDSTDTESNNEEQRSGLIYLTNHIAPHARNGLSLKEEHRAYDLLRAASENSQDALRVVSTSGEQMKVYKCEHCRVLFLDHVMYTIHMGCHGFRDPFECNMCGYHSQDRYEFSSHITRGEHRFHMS
T2 sequence (Q96SW2 whole entry): as the sequence (Q96SW2 whole entry) above
T2 sequence (Q16531 whole entry partner): as the sequence (Q16531 whole entry partner) above

IKZF2 = biological target: T3, IKZF2 (Homo sapiens, UniProt Q96SW2+Q9UKS7); assay: Western-blot assay, substrate protein degradation in hPBMCs: IKZF2; settings: for substrate protein remaining % IKZF2: 24 hours of compound treatment, 50 nM and 500 nM
T3 construct: effects of the compounds of the present disclosure on the expression of target proteins in cells; endogenous in cells; host or cells: human PBMCs (hPBMCs)

IKZF3 = biological target: T4, IKZF3 (Homo sapiens, UniProt Q96SW2+Q9UKT9); assay: Western-blot assay, substrate protein degradation in hPBMCs: IKZF3; settings: for substrate protein remaining % IKZF3: 24 hours of compound treatment, 50 nM and 500 nM
T4 construct: effects of the compounds of the present disclosure on the expression of target proteins in cells; endogenous in cells; host or cells: human PBMCs (hPBMCs)
T4 sequence (Q9UKT9 whole entry): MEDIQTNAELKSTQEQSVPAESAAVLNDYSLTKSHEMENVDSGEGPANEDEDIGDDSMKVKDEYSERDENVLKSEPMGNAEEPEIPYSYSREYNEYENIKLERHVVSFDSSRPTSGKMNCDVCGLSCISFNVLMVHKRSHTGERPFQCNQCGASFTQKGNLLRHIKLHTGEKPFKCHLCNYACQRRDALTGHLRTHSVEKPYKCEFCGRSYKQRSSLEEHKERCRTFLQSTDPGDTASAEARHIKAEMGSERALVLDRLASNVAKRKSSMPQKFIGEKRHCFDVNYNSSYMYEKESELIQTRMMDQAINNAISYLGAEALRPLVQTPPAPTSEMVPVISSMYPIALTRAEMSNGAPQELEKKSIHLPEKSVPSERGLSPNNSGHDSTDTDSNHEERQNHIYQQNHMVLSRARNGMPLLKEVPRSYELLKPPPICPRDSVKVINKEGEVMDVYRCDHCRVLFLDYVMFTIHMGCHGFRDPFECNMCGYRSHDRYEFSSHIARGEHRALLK
T4 sequence (Q96SW2 whole entry): as the sequence (Q96SW2 whole entry) above
T4 sequence (Q16531 whole entry partner): as the sequence (Q16531 whole entry partner) above

CK1α = biological target: T5, CK1α (Homo sapiens, UniProt P48729+Q96SW2); assay: Western-blot assay, substrate protein degradation in hPBMCs: CK1α; settings: for substrate protein remaining % CK1α: 24 hours of compound treatment, 50 nM and 500 nM
T5 construct: effects of the compounds of the present disclosure on the expression of target proteins in cells; endogenous in cells; host or cells: human PBMCs (hPBMCs)
T5 sequence (P48729 whole entry): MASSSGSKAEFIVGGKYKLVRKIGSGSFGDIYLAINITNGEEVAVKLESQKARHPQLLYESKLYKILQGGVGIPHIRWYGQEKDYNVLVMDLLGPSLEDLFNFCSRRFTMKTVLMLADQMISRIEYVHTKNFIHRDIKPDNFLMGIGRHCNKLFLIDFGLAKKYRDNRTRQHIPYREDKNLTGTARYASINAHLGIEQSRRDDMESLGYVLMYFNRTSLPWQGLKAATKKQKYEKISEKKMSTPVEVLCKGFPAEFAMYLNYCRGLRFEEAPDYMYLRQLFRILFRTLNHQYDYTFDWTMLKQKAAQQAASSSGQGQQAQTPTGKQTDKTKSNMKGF
T5 sequence (Q96SW2 whole entry): as the sequence (Q96SW2 whole entry) above
T5 sequence (Q16531 whole entry partner): as the sequence (Q16531 whole entry partner) above

GSPT1 = biological target: T6, GSPT1 (Homo sapiens, UniProt P15170+Q96SW2); assay: Western-blot assay, substrate protein degradation in hPBMCs: GSPT1; settings: for substrate protein remaining % GSPT1: 24 hours of compound treatment, 50 nM and 500 nM
T6 construct: effects of the compounds of the present disclosure on the expression of target proteins in cells; endogenous in cells; host or cells: human PBMCs (hPBMCs)
T6 sequence (P15170 whole entry): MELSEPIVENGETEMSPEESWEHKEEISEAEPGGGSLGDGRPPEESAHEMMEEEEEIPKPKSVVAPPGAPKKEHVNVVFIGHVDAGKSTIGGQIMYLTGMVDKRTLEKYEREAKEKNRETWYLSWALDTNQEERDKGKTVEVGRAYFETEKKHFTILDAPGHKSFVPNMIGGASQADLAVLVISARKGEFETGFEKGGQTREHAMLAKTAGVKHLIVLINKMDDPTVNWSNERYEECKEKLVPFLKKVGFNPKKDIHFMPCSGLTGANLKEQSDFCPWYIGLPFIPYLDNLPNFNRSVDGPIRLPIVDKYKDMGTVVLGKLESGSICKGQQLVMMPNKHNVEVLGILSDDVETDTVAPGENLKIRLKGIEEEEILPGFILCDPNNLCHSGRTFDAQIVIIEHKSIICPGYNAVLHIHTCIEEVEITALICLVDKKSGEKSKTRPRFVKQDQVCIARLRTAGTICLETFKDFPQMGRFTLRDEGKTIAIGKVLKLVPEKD
T6 sequence (Q96SW2 whole entry): as the sequence (Q96SW2 whole entry) above
T6 sequence (Q16531 whole entry partner): as the sequence (Q16531 whole entry partner) above

[1] = compounds at 50 nM and 500 nM, 24 hours

SMILES | WEE1 substrate protein remaining % (WEE1; [1]) | IKZF1 substrate protein remaining % (IKZF1; [1]) | IKZF2 substrate protein remaining % (IKZF2; [1]) | IKZF3 substrate protein remaining % (IKZF3; [1]) | CK1α substrate protein remaining % (CK1α; [1]) | GSPT1 substrate protein remaining % (GSPT1; [1]) | substrate protein remaining % WEE1 (WEE1) | substrate protein remaining % IKZF1 (IKZF1) | substrate protein remaining % IKZF2 (IKZF2) | substrate protein remaining % IKZF3 (IKZF3) | substrate protein remaining % CK1α (CK1α) | substrate protein remaining % GSPT1 (GSPT1)
O=C1CCN(N2C(=O)c3ccc(CN4CCCN(C(c5ccccc5)c5ccccc5)CC4)cc3C2=O)C(=O)N1 [GT-07295, 5-((4-benzhydryl-1,4-diazepan-1-yl)methyl)-2-(2,4-dioxotetrahydropyrimidin-1(2H)-yl)isoindoline-1,3-dione] | B ("B" is defined as 80%< substrate protein remaining %≤ 100%) | B ("B" is defined as 80%< substrate protein remaining %≤ 100%) | B ("B" is defined as 80%< substrate protein remaining %≤ 100%) | B ("B" is defined as 80%< substrate protein remaining %≤ 100%) | B ("B" is defined as 80%< substrate protein remaining %≤ 100%) | A ("A" is defined as 0% ≤ substrate protein remaining % ≤ 80%) | – | – | – | – | – | –
CC1(C)CCC(CN2CCN(Cc3ccc4c(c3)CN(N3CCC(=O)NC3=O)C4=O)C(C(F)(F)F)C2)=C(c2ccc(Cl)cc2)C1 (stereo not drawn) [GT-07296, 1-(5-((4-((4'-chloro-5,5-dimethyl-3,4,5,6-tetrahydro-[1,1'-biphenyl]-2-yl)methyl)-2-(trifluoromethyl)piperazin-1-yl)methyl)-1-oxoisoindolin-2-yl)dihydropyrimidine-2,4(1H,3H)-dione] | – | – | – | – | – | – | A (0% ≤ substrate protein remaining % ≤ 80%) | A (0% ≤ substrate protein remaining % ≤ 80%) | B (80%< substrate protein remaining %≤ 100%) | B (80%< substrate protein remaining %≤ 100%) | A (0% ≤ substrate protein remaining % ≤ 80%) | A (0% ≤ substrate protein remaining % ≤ 80%)
O=C1CCN(N2Cc3cc(CN4CCN(CC5=C(c6ccc(F)cc6)CCCC5)CC4)ccc3C2=O)C(=O)N1 [GT-07297, 1-(5-((4-((4'-fluoro-3,4,5,6-tetrahydro-[1,1'-biphenyl]-2-yl)methyl)piperazin-1-yl)methyl)-1-oxoisoindolin-2-yl)dihydropyrimidine-2,4(1H,3H)-dione] | – | – | – | – | – | – | A (0% ≤ substrate protein remaining % ≤ 80%) | B (80%< substrate protein remaining %≤ 100%) | A (0% ≤ substrate protein remaining % ≤ 80%) | A (0% ≤ substrate protein remaining % ≤ 80%) | A (0% ≤ substrate protein remaining % ≤ 80%) | A (0% ≤ substrate protein remaining % ≤ 80%)
CC1(C)CCC(CN2CC3CCC2CN3Cc2ccc3c(c2)C(=O)N(N2CCC(=O)NC2=O)C3=O)=C(c2ccc(Cl)cc2)C1 (stereo not drawn) [GT-07300, 5-((5-((4'-chloro-5,5-dimethyl-3,4,5,6-tetrahydro-[1,1'-biphenyl]-2-yl)methyl)-2,5-diazabicyclo[2.2.2]octan-2-yl)methyl)-2-(2,4-dioxotetrahydropyrimidin-1(2H)-yl)isoindoline-1,3-dione] | – | – | – | – | – | – | A (0% ≤ substrate protein remaining % ≤ 80%) | B (80%< substrate protein remaining %≤ 100%) | B (80%< substrate protein remaining %≤ 100%) | B (80%< substrate protein remaining %≤ 100%) | B (80%< substrate protein remaining %≤ 100%) | B (80%< substrate protein remaining %≤ 100%)
CC1(C)CCC(CN2CCN(Cc3ccc4c(c3)C(=O)N(N3CCC(=O)NC3=O)C4=O)C(C(F)(F)F)C2)=C(c2ccc(Cl)cc2)C1 (stereo not drawn) [GT-07301, 5-((4-((4'-chloro-5,5-dimethyl-3,4,5,6-tetrahydro-[1,1'-biphenyl]-2-yl)methyl)-2-(trifluoromethyl)piperazin-1-yl)methyl)-2-(2,4-dioxotetrahydropyrimidin-1(2H)-yl)isoindoline-1,3-dione] | – | – | – | – | – | – | B (80%< substrate protein remaining %≤ 100%) | B (80%< substrate protein remaining %≤ 100%) | B (80%< substrate protein remaining %≤ 100%) | B (80%< substrate protein remaining %≤ 100%) | B (80%< substrate protein remaining %≤ 100%) | A (0% ≤ substrate protein remaining % ≤ 80%)
O=C1CCN(N2C(=O)c3ccc(CN4CCN(CC5=C(c6ccc(F)cc6)CCCC5)CC4)cc3C2=O)C(=O)N1 [GT-07302, 2-(2,4-dioxotetrahydropyrimidin-1(2H)-yl)-5-((4-((4'-fluoro-3,4,5,6-tetrahydro-[1,1'-biphenyl]-2-yl)methyl)piperazin-1-yl)methyl)isoindoline-1,3-dione] | – | – | – | – | – | – | A (0% ≤ substrate protein remaining % ≤ 80%) | B (80%< substrate protein remaining %≤ 100%) | B (80%< substrate protein remaining %≤ 100%) | B (80%< substrate protein remaining %≤ 100%) | B (80%< substrate protein remaining %≤ 100%) | B (80%< substrate protein remaining %≤ 100%)
CC1(C)CC(c2ccc(Cl)cc2)=C(CN2CCN(Cc3ccc4c(c3)C(=O)N(N3CCC(=O)NC3=O)C4=O)CC2)CO1 [GT-07304, 5-((4-((4-(4-chlorophenyl)-6,6-dimethyl-5,6-dihydro-2H-pyran-3-yl)methyl)piperazin-1-yl)methyl)-2-(2,4-dioxotetrahydropyrimidin-1(2H)-yl)isoindoline-1,3-dione] | – | – | – | – | – | – | B (80%< substrate protein remaining %≤ 100%) | B (80%< substrate protein remaining %≤ 100%) | B (80%< substrate protein remaining %≤ 100%) | B (80%< substrate protein remaining %≤ 100%) | A (0% ≤ substrate protein remaining % ≤ 80%) | A (0% ≤ substrate protein remaining % ≤ 80%)
Cc1ccsc1C1CCN(Cc2ccc3c(c2)CN(N2CCC(=O)NC2=O)C3=O)CC1 [GT-07305, 1-(5-((4-(3-methylthiophen-2-yl)piperidin-1-yl)methyl)-1-oxoisoindolin-2-yl)dihydropyrimidine-2,4(1H,3H)-dione] | – | – | – | – | – | – | B (80%< substrate protein remaining %≤ 100%) | B (80%< substrate protein remaining %≤ 100%) | A (0% ≤ substrate protein remaining % ≤ 80%) | A (0% ≤ substrate protein remaining % ≤ 80%) | B (80%< substrate protein remaining %≤ 100%) | A (0% ≤ substrate protein remaining % ≤ 80%)
Cc1ccsc1C1CCN(Cc2ccc3c(c2)C(=O)N(N2CCC(=O)NC2=O)C3=O)CC1 [GT-07306, 2-(2,4-dioxotetrahydropyrimidin-1(2H)-yl)-5-((4-(3-methylthiophen-2-yl)piperidin-1-yl)methyl)isoindoline-1,3-dione] | – | – | – | – | – | – | B (80%< substrate protein remaining %≤ 100%) | B (80%< substrate protein remaining %≤ 100%) | B (80%< substrate protein remaining %≤ 100%) | A (0% ≤ substrate protein remaining % ≤ 80%) | B (80%< substrate protein remaining %≤ 100%) | A (0% ≤ substrate protein remaining % ≤ 80%)
CC1(C)CCC(CN2CC3CC2CN3Cc2ccc3c(c2)CN(N2CCC(=O)NC2=O)C3=O)=C(c2ccc(Cl)cc2)C1 (stereo not drawn) [GT-07329, 1-(5-((5-((4'-chloro-5,5-dimethyl-3,4,5,6-tetrahydro-[1,1'-biphenyl]-2-yl)methyl)-2,5-diazabicyclo[2.2.1]heptan-2-yl)methyl)-1-oxoisoindolin-2-yl)dihydropyrimidine-2,4(1H,3H)-dione] | – | – | – | – | – | – | A (0% ≤ substrate protein remaining % ≤ 80%) | B (80%< substrate protein remaining %≤ 100%) | B (80%< substrate protein remaining %≤ 100%) | B (80%< substrate protein remaining %≤ 100%) | B (80%< substrate protein remaining %≤ 100%) | A (0% ≤ substrate protein remaining % ≤ 80%)
CC1(C)CCC(CN2CC3CCC(C2)N3Cc2ccc3c(c2)CN(N2CCC(=O)NC2=O)C3=O)=C(c2ccc(Cl)cc2)C1 [GT-07330, 1-(5-((3-((4'-chloro-5,5-dimethyl-3,4,5,6-tetrahydro-[1,1'-biphenyl]-2-yl)methyl)-3,8-diazabicyclo[3.2.1]octan-8-yl)methyl)-1-oxoisoindolin-2-yl)dihydropyrimidine-2,4(1H,3H)-dione] | – | – | – | – | – | – | A (0% ≤ substrate protein remaining % ≤ 80%) | A (0% ≤ substrate protein remaining % ≤ 80%) | A (0% ≤ substrate protein remaining % ≤ 80%) | A (0% ≤ substrate protein remaining % ≤ 80%) | B (80%< substrate protein remaining %≤ 100%) | A (0% ≤ substrate protein remaining % ≤ 80%)
